From US20230172940A1, “METHODS OF EXTENDING LIFESPAN BY ADMINISTERING FERROPTOSIS INHIBITORS” (COLLABORATIVE MEDICINAL DEVELOPMENT, LLC, priority 2020, published 2023)
Counter-ions that a name gives are not always drawn.

Experiments:
[1] = test system: C. elegans; settings: DEM at 10-100 μM, minor glutathione loss; cited from earlier work
[2] = test system: C. elegans iron-proteome; assay: Size exclusion chromatography-ICP-MS of soluble iron; type: in vivo, Caenorhabditis elegans; settings: aged C. elegans (10 days post adulthood)
Procedure: Liquid chromatography was performed using established protocols. Briefly^o samples of aged C. elegans were lysed using a Bioruptor Next Gen (Diagenode) bath sonicator set on HIGH and cooled to 4° C. using 10 cycles of 10 sec ON and 10 sec OFF^o in a 1:1 volume ratio of Tris-buffered saline (pH 8.0) with added proteinase inhibitors (EDTA-free; Roche). Sample homogenization was confirmed by microscopic inspection. Lysates were then centrifuged for 15 min at 175^o000 g at 4° C. The supernatant was removed and total protein concentration in the soluble fraction was determined using a NanoDrop UV spectrometer (Thermo Fisher Scientific) before being transferred to standard chromatography vials with polypropylene inserts (Agilent Technologies) and kept at 4° C. on a Peltier cooler for analysis. Size exclusion chromatography-inductively coupled plasma-mass spectrometry was performed using an Agilent Technologies 1100 Series liquid chromatography system with a BioSEC 5 SEC column (5 μm particle size^o 300 Å pore size^o I.D. 4.6 mm^o Agilent Technologies) and 7700× Series ICP-MS as previously described (Hare et al.^o 2016b). A buffer of 200 mM NH4NO3 was used for all separations at a flow rate of 0.4 mL min^−1. A total of 50 μg of soluble protein was loaded onto the column by manually adjusting the injection volume for each sample. Mass-to-charge ratios (m/z) for phosphorus (31) and iron (56) were monitored in time resolved analysis mode. Plots of the mean (±standard deviation) of three independent biological replicates are shown. Integration of the three major peaks was performed using Prism (ver. 7 for Mac OS X, Graphpad).

[3] = test system: C. elegans; assay: Antibiotic tests: lifespan with ampicillin co-administration; type: in vivo, Caenorhabditis elegans
Procedure: To determine whether the increased lifespan seen with SIH treatment could be explained solely by an antibiotic effect of iron reduction, nematodes were treated with ampicillin, with and without SIH co-administration. Even in the presence of ampicillin, SIH increased median lifespan by 6 days, similar to its benefits in the absence of ampicillin (median increase of 7 days).

Compound	effect on lifespan as reported [1]	Ferritin-bound iron, normalized peak area [2]	iron associated with the LMW peak, normalized peak area [2]	iron bound within HMW species [2]	lifespan extension on co-administration ([3]; SIH and the antibiotic ampicillin co-administered)	increase of median lifespan ([3]; SIH in the absence of ampicillin)	increase of median lifespan ([3]; SIH in the presence of ampicillin)
CCOC(=O)/C=C\C(=O)OCC [DEM, Diethyl maleate]	increasing lifespan via hormesis						
O=C(N/N=C/c1ccccc1O)c1ccncc1 [SIH, Salicylaldehyde isonicotinoyl hydrazone]		approximately 50%	approximately 40%	unaffected	additive effect on media lifespan extension	7 days	6 days
